These are literature values, as cited in patent US20230149278A1, “METHOD FOR DYEING KERATIN MATERIAL, COMPRISING THE USE OF AN ORGANOSILICON COMPOUND, A POLYSACCHARIDE, A COLORING COMPOUND AND A POST-TREATMENT AGENT” (Henkel AG & Co. KGaA, priority 2020, published 2023).

For one data set the following is noted: water at 25° C.
In the case of `O=C(O)C1=NN(c2ccc(S(=O)(=O)O)cc2)C(=O)C1N=Nc1ccc(S(=O)(=O)O)cc1` (stereo not drawn) [Acid Yellow 23, 4,5-dihydro-5-oxo-1-(4-sulfophenyl)-4-((4-sulfophenyl)azo)-1H-pyrazole-3-carboxylic acid], the “solubility in water (in words)” value is “readily soluble”.

The data set is the same for the next values; noted with them: water, 25° C.
Regarding `CCN(Cc1cccc(S(=O)(=O)[O-])c1)c1ccc(C(=C2C=CC(=[N+](CC)Cc3cccc(S(=O)(=O)[O-])c3)C=C2)c2ccccc2S(=O)(=O)[O-])cc1.[Na+].[Na+]` [Acid Blue 9], the solubility in water entry is given as “more than 20 wt. %”.

Turning to “mixture of the sodium salts of mono- and disulfonic acids of 2-(2-quinolyl)-1H-indene-1,3(2H)-dione [Acid Yellow 3]”, the solubility in water is 20 g/L.

Consider `O=C([O-])c1c(Cl)c(Cl)c(Cl)c(Cl)c1-c1c2c(Br)cc(=O)c(Br)c-2oc2c(Br)c(O)cc(Br)c12.O=C([O-])c1c(Cl)c(Cl)c(Cl)c(Cl)c1-c1c2c(Br)cc(=O)c(Br)c-2oc2c(Br)c(O)cc(Br)c12.[Na+].[Na+]` [Acid Red 92, disodium salt of 3,4,5,6-tetrachloro-2-(1,4,5,8-tetrabromo-6-hydroxy-3-oxoxanthen-9-yl)benzoic acid], for which the solubility in water entry is listed as “greater than 10 g/L”.

Regarding `Nc1cc(S(=O)(=O)[O-])cc2cc(S(=O)(=O)[O-])c(N=Nc3ccccc3)c(O)c12.[Na+].[Na+]` [Acid Red 33, disodium salt of 5-amino-4-hydroxy-3-(phenylazo)-naphthalene-2,7-disulphonate], the solubility in water is given as 2,5 g/L.

Take `O=S(=O)([O-])c1ccc(N=Nc2c(O)ccc3ccccc23)cc1.[Na+]` [Acid Orange 7, sodium salt of 4-[(2-hydroxy-1-naphthyl)azo]benzene sulfonate]: the solubility in water entry was “more than 7 g/L”.
